# Data: PubChem BioAssay AID2060891 (Molecular Pharmacology Branch, DTP, NCI, 2025)
# Test system: K98450-129-R-PDC complex spheroid growth, percent test/control
# Test: Anticancer human tumor K98450-129-R-PDC patient-derived colon adenocarcinoma cell line growth inhibition [RAS]
# Details: for IC50: curve of first compound; for viability, T/C: stronger effect = lower value
# In short: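 Tumour cells grown as complex spheroids with HUVEC endothelial cells and mesenchymal stem cells, treated with RAS pathway inhibitor combinations. Each agent spans half-log steps from near clinical Cmax, or 10 microM where Cmax is unknown.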
# [1] = second compound 0.000949 µM, first compound 0.0316 µM
# [2] = second compound 0.000949 µM, first compound 0.1 µM
# [3] = second compound 0.000949 µM, first compound 0.316 µM
# [4] = second compound 0.000949 µM, first compound 1 µM
# [5] = second compound 0.003 µM, first compound 0.0316 µM
# [6] = second compound 0.003 µM, first compound 0.1 µM
# [7] = second compound 0.003 µM, first compound 0.316 µM
# [8] = second compound 0.003 µM, first compound 1 µM
# [9] = second compound 0.00949 µM, first compound 0.0316 µM
# [10] = second compound 0.00949 µM, first compound 0.1 µM
# [11] = second compound 0.00949 µM, first compound 0.316 µM
# [12] = second compound 0.00949 µM, first compound 1 µM
# [13] = second compound 0.03 µM, first compound 0.0316 µM
# [14] = second compound 0.03 µM, first compound 0.1 µM
# [15] = second compound 0.03 µM, first compound 0.316 µM
# [16] = second compound 0.03 µM, first compound 1 µM
# [17] = second compound 0.0949 µM, first compound 0.0316 µM
# [18] = second compound 0.0949 µM, first compound 0.1 µM
# [19] = second compound 0.0949 µM, first compound 0.316 µM
# [20] = second compound 0.0949 µM, first compound 1 µM
# [21] = second compound 0.3 µM, first compound 0.0316 µM
# [22] = second compound 0.3 µM, first compound 0.1 µM
# [23] = second compound 0.3 µM, first compound 0.316 µM
# [24] = second compound 0.3 µM, first compound 1 µM
# 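Also: spheroids exposed to agents for seven days before the viability readout.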
# 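For viability, T/C in this document: luminescence used as a proxy for viable cell amount.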
compound,measurement,setting,value
C=CC(=O)N1CCN(c2nc(OCC3CCCN3C)nc3c(F)c(-c4nc(N)cc(C)c4C(F)(F)F)c(Cl)cc23)C(C)C1 (centres undefined) + CCn1c(-c2cc(N3CCN(C)CC3)cnc2C(C)OC)c2c3cc(ccc31)-c1csc(n1)CC(NC(=O)C1CC1C)C(=O)N1CCCC(N1)C(=O)OCC(C)(C)C2,IC50,second compound 0.000949 µM,90.6 nM
same,IC50,second compound 0.003 µM,52.7 nM
same,IC50,second compound 0.00949 µM,30.4 nM
same,IC50,second compound 0.03 µM,< 3.16 nM
same,IC50,second compound 0.0949 µM,< 3.16 nM
same,IC50,second compound 0.3 µM,< 3.16 nM
same,"viability, T/C","second compound 0.000949 µM, first compound 0.00316 µM",88%
same,"viability, T/C","second compound 0.000949 µM, first compound 0.01 µM",71.2%
same,"viability, T/C",[1],69%
same,"viability, T/C",[2],44.4%
same,"viability, T/C",[3],40.1%
same,"viability, T/C",[4],34.5%
same,"viability, T/C","second compound 0.003 µM, first compound 0.00316 µM",88%
same,"viability, T/C","second compound 0.003 µM, first compound 0.01 µM",68.5%
same,"viability, T/C",[5],55.6%
same,"viability, T/C",[6],41.8%
same,"viability, T/C",[7],42.1%
same,"viability, T/C",[8],34.8%
same,"viability, T/C","second compound 0.00949 µM, first compound 0.00316 µM",72.7%
same,"viability, T/C","second compound 0.00949 µM, first compound 0.01 µM",61.7%
same,"viability, T/C",[9],49.8%
same,"viability, T/C",[10],37.2%
same,"viability, T/C",[11],29.1%
same,"viability, T/C",[12],20%
same,"viability, T/C","second compound 0.03 µM, first compound 0.00316 µM",44.8%
same,"viability, T/C","second compound 0.03 µM, first compound 0.01 µM",46.3%
same,"viability, T/C",[13],37.3%
same,"viability, T/C",[14],19.8%
same,"viability, T/C",[15],20.9%
same,"viability, T/C",[16],18.1%
same,"viability, T/C","second compound 0.0949 µM, first compound 0.00316 µM",16.1%
same,"viability, T/C","second compound 0.0949 µM, first compound 0.01 µM",16.9%
same,"viability, T/C",[17],14.4%
same,"viability, T/C",[18],14.7%
same,"viability, T/C",[19],14.3%
same,"viability, T/C",[20],12%
same,"viability, T/C","second compound 0.3 µM, first compound 0.00316 µM",10.9%
same,"viability, T/C","second compound 0.3 µM, first compound 0.01 µM",10.5%
same,"viability, T/C",[21],11.6%
same,"viability, T/C",[22],10.3%
same,"viability, T/C",[23],11.7%
same,"viability, T/C",[24],12.4%
Cc1nc(N2CCC3(CC2)COC(C)C3N)c(CO)nc1Sc1ccnc(N)c1Cl (centres undefined) + CCn1c(-c2cc(N3CCN(C)CC3)cnc2C(C)OC)c2c3cc(ccc31)-c1csc(n1)CC(NC(=O)C1CC1C)C(=O)N1CCCC(N1)C(=O)OCC(C)(C)C2,IC50,second compound 0.000949 µM,1400 nM
same,IC50,second compound 0.003 µM,644 nM
same,IC50,second compound 0.00949 µM,224 nM
same,IC50,second compound 0.03 µM,< 31.6 nM
same,IC50,second compound 0.0949 µM,< 31.6 nM
same,IC50,second compound 0.3 µM,< 31.6 nM
same,"viability, T/C",[1],99.3%
same,"viability, T/C",[2],71.3%
same,"viability, T/C",[3],80.2%
same,"viability, T/C",[4],55.4%
same,"viability, T/C","second compound 0.000949 µM, first compound 3.16 µM",35.8%
same,"viability, T/C","second compound 0.000949 µM, first compound 10 µM",16.7%
same,"viability, T/C",[5],89%
same,"viability, T/C",[6],64.3%
same,"viability, T/C",[7],61.8%
same,"viability, T/C",[8],51.8%
same,"viability, T/C","second compound 0.003 µM, first compound 3.16 µM",22%
same,"viability, T/C","second compound 0.003 µM, first compound 10 µM",11%
same,"viability, T/C",[9],64.3%
same,"viability, T/C",[10],53.4%
same,"viability, T/C",[11],48.2%
same,"viability, T/C",[12],19.5%
same,"viability, T/C","second compound 0.00949 µM, first compound 3.16 µM",8.78%
same,"viability, T/C","second compound 0.00949 µM, first compound 10 µM",7.55%
same,"viability, T/C",[13],38.6%
same,"viability, T/C",[14],39.2%
same,"viability, T/C",[15],14.5%
same,"viability, T/C",[16],8.49%
same,"viability, T/C","second compound 0.03 µM, first compound 3.16 µM",8.08%
same,"viability, T/C","second compound 0.03 µM, first compound 10 µM",6.16%
same,"viability, T/C",[17],15.2%
same,"viability, T/C",[18],13.1%
same,"viability, T/C",[19],10.9%
same,"viability, T/C",[20],9.07%
same,"viability, T/C","second compound 0.0949 µM, first compound 3.16 µM",6.17%
same,"viability, T/C","second compound 0.0949 µM, first compound 10 µM",4%
same,"viability, T/C",[21],10.7%
same,"viability, T/C",[22],11.6%
same,"viability, T/C",[23],9.12%
same,"viability, T/C",[24],7.56%
same,"viability, T/C","second compound 0.3 µM, first compound 3.16 µM",6.68%
same,"viability, T/C","second compound 0.3 µM, first compound 10 µM",5.63%
